Experimental data published in patent publication US20090209570A1 (priority 2001, published 2009).
Where a name gives a salt, the structure may show the parent alone. Read-outs that look alike come from different tables or passages of the source.

Assays:
[1] = test system: rats; experiment: Analgesia test (rat tail flick test); type: in vivo; settings: for sc/icv: ratio of tail flick ED50 sc to icv; for Analgesic effect (in percent) after 10 minutes / Analgesic effect (in percent) after 20 minutes / Analgesic effect (in percent) after 30 minutes / Analgesic effect (in percent) after 60 minutes / Analgesic effect (in percent) after 120 minutes / Analgesic effect (in percent) after 180 minutes: 3 0.5 μg/rat, 4 0.25 μg/rat, rats 120 g; for Analgesic effect (in percent) after 10 minutes / Analgesic effect (in percent) after 20 minutes / Analgesic effect (in percent) after 30 minutes / Analgesic effect (in percent) after 60 minutes / Analgesic effect (in percent) after 120 minutes: morphine 50 μg/rat
Procedure: A test on rats was applied (“rat tail flick test”). This test was carried out as previously described (Zs. Fürst et al., Eur. J. Pharmacol. 1993, Vol. 236, pp. 209-215).

[2] = target: T1, μ-opioid receptors (Rattus norvegicus, UniProt P33535); experiment: Opioid receptor binding studies with [3H]DAMGO on rat's brain homogenisates
T1 construct: from tissue; host or cells: rat brain homogenate
T1 sequence (P33535 whole entry): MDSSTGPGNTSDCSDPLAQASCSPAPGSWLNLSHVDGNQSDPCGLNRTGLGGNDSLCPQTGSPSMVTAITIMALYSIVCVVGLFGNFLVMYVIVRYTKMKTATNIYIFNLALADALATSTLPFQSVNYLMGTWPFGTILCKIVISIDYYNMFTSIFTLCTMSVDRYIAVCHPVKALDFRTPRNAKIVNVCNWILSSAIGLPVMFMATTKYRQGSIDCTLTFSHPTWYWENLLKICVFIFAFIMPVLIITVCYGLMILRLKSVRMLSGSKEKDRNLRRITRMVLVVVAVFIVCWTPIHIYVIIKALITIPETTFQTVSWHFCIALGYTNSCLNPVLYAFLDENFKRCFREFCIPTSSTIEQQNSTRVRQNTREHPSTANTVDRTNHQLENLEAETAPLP

[3] = test system: anaesthetised rats; settings: rat, in vivo; for respiratory depression at analgesic doses (in words): sc
[4] = in vivo; settings: rat
[5] = test system: carrageen-induced hyperalgesia on the right hind paw of rats; experiment: Randall-Selitto test (hind-paw withdrawal latency, mechanical stimulation); type: in vivo, rat
Procedure: The Randall-Selitto Test (L. O. Randall and J. J. Selitto, Arch. Int. Pharmacodyn. 1957, Vol. 111, pp. 409-419) was applied to study the analgesic effect on carrageen-induced hyperalgesia on the right hind paw of rats. In this way the “hind-paw withdrawal latency” (HWL; latency period for withdrawing the right hind paw) with mechanical stimulation (e.g. I. Bileviciute-Ljungar and M. Spetea, Br. J. Pharmcol. 2001, Vol. 132, pp. 252-258) is measured.

[6] = test system: rats with ligations around the ischias nerve; experiment: Von Frey test (mechanical allodynia); type: in vivo, rat
Procedure: (§1) The tests involve models to test the effect of a substance on neuropathic pain.
(§2) For both tests ligations were applied around the ischias nerve (G. J. Bennett and Y. K. Xie, Pain 1988, Vol. 33, 87-107).
A slight pressure (2 to 60 g) was exerted on the skin of the hind paw of the rats (200-250 g) using Von Frey hairs and the latency period of withdrawal of the hind paw was studied at various time intervals (5, 15, 30 and 60 minutes after the application of the substance). The substance to be investigated was applied via intraplant (ipl).

[7] = test system: rats with ligations around the ischias nerve; experiment: Cold water allodynia test (thermal allodynia); type: in vivo, rat
Procedure: as §1, §2
Thermal stimulation (cold water) was used to initiate withdrawal of the hind paw of the rats (200-300 g). After 5, 15 and 30 min (after application of the substance) the latency period of the withdrawal of the hind paw was studied (J. C. Hunter et al., Eur. J. Pharmacol., 1997, Vol. 324, 153-160). The substances to be investigated were applied via intraplant (ipl).

[8] = central, rat tail flick test, intracerebroventricular application, read-out: ED50 (μg/kg, icv)
[9] = sc, rat tail flick test, subcutaneous application, read-out: ED50 (μg/kg, sc)
[10] = 20 μg/kg, subcutaneous application
[11] = 100 μg/rat after subcutaneous application
[12] = peripherally acting opioid antagonist

**Q.** Which ED50 [1, 8] does the source give for CO[C@@]12CC[C@@H](N[C@@H](C)C(=O)O)[C@@H]3Oc4c(O)ccc5c4[C@@]31CCN(C)C2C5 [Compound 8, (2′S)-2′-(4,5α-epoxy-3-hydroxy-14β-methoxy-17-methylmorphinan-6β-ylamino)-propionic acid bis(tetrafluoroborate)] here?
**A.** 0.67 µg/kg

**Q.** And the “analgesic activity (in words)” value ([1]; rat tail flick test)?
**A.** very high analgesic activity

**Q.** What about the sc/icv [1] of the same compound?
**A.** 746

**Q.** And the ED50 [1, 9]?
**A.** 500 µg/kg

**Q.** For CO[C@@]12CC[C@@H](NC(=N)N)[C@@H]3Oc4c(O)ccc5c4[C@@]31CCN(C)[C@@H]2C5 [Compound 17, 4,5α-epoxy-6β-guanidinyl-14β-methoxy-17-methylmorphinan-3-ol dihydrochloride], which Ki [2] is on record?
**A.** 0.25 nM

**Q.** With CO[C@@]12CC[C@H](N[C@@H](Cc3ccccc3)C(=O)O)[C@@H]3Oc4c(O)ccc5c4[C@@]31CCN(C)C2C5 [Compound 11, (2′S)-2′-(4,5α-epoxy-3-hydroxy-14β-methoxy-17-methylmorphinan-6α-ylamino)-3′-phenylpropionic acid bis(tetrafluoroborate)] as the compound, how does the Ki [2] read?
**A.** 0.95 nM

**Q.** For CCOC(=O)CN[C@@H]1CC[C@@]2(OC)[C@H]3Cc4ccc(O)c5c4[C@@]2(CCN3C)[C@H]1O5 [Compound 23, (4,5α-epoxy-3-hydroxy-14β-methoxy-17-methylmorphinan-6β-ylamino)-acetic acid-ethylester dihydrochloride], which Ki [2] is on record?
**A.** 0.8 nM

**Q.** Which ED50 [1, 8] does the source give for CO[C@@]12CC[C@H](N[C@@H](C)C(=O)O)[C@@H]3Oc4c(O)ccc5c4[C@@]31CCN(C)C2C5 [Compound 7, (2′S)-2′-(4,5α-epoxy-3-hydroxy-14β-methoxy-17-methylmorphinan-6α-ylamino)-propionic acid bis(tetrafluoroborate)] here?
**A.** 0.75 µg/kg

**Q.** And the “analgesic activity (in words)” value ([1]; rat tail flick test)?
**A.** very high analgesic activity

**Q.** And the sc/icv [1]?
**A.** 133

**Q.** What about the ED50 [1, 9] of the same compound?
**A.** 100 µg/kg

**Q.** For O=C(O)CN[C@@H]1CC[C@@]2(OCCCc3ccccc3)[C@H]3Cc4ccc(O)c5c4[C@@]2(CCN3CC2CC2)[C@H]1O5 [Compound 38, {17-cyclopropylmethyl-4,5α-epoxy-3-hydroxy-14β-[(3-phenylpropyl)oxy]-morphinan-6β-ylamino}acetic acid dihydrochloride], which Ki [2] is on record?
**A.** 0.24 nM

**Q.** With CO[C@@]12CCC(NCC(=O)OC(C)(C)C)[C@@H]3Oc4c(O)ccc5c4[C@@]31CCN(C)C2C5 (stereo in doubt) [Compound 2, (4,5α-epoxy-3-hydroxy-14β-methoxy-17-methylmorphinan-6β-ylamino)-acetic acid-tert.-butylester] as the compound, how does the Ki [2] read?
**A.** 1.3 nM

**Q.** With CO[C@@]12CC[C@@H](NC(=NC(=O)OC(C)(C)C)NC(=O)OC(C)(C)C)[C@@H]3Oc4c(O)ccc5c4[C@@]31CCN(C)C2C5 [Compound 16] as the compound, how does the Ki ([2]; [3H]DAMGO as radio-ligand, rat's brain homogenisates, read-out: Ki (nM) (μ-receptors)) read?
**A.** 0.61 nM

**Q.** With CN1CC[C@]23c4c5ccc(O)c4O[C@H]2[C@@H](O)C=C[C@H]3[C@H]1C5 [Morphine, morphine, reference compound] as the compound, how does the ED50 [1, 8] read?
**A.** 100 µg/kg

**Q.** What about the “Analgesic effect (in percent) after 10 minutes” value ([1]; icv) of the same compound?
**A.** 57%

**Q.** And the “Analgesic effect (in percent) after 20 minutes” value ([1]; icv)?
**A.** 91%

**Q.** And the “Analgesic effect (in percent) after 30 minutes” value ([1]; icv)?
**A.** 74%

**Q.** What about the “Analgesic effect (in percent) after 60 minutes” value ([1]; icv) of the same compound?
**A.** 59%

**Q.** And the “Analgesic effect (in percent) after 120 minutes” value ([1]; icv)?
**A.** 20%

**Q.** What about the sc/icv [1] of the same compound?
**A.** 19

**Q.** What about the ED50 [1, 9] of the same compound?
**A.** 1900 µg/kg

**Q.** What about the sc/icv [3] of the same compound?
**A.** 34

**Q.** And the ED50 [4]?
**A.** 0.083 mg/kg

**Q.** And the ED50 ([4]; sc)?
**A.** 2.8 mg/kg

**Q.** Which melting point does the source give for CO[C@@]12CC[C@@H](N)[C@@H]3Oc4c(O)ccc5c4[C@@]31CCN(C)[C@@H]2C5 here?
**A.** > 235 °C

**Q.** Which results are given for CO[C@@]12CC[C@H](NCC(=O)O)[C@@H]3Oc4c(O)ccc5c4[C@@]31CCN(C)C2C5 [Compound 3, (4,5α-epoxy-3-hydroxy-14β-methoxy-17-methylmorphinan-6α-ylamino)-acetic acid sesqui(trifluoroacetate)]?
**A.** ED50 [1, 8]: 0.49 µg/kg; passage of the blood-brain barrier (concluded from sc/icv figures) ([1]; conclusion from tail flick sc/icv ratio): only overcome the blood-brain barrier in a very restricted manner; Analgesic effect (in percent) after 10 minutes ([1]; icv): 46%; Analgesic effect (in percent) after 20 minutes ([1]; icv): 62%; Analgesic effect (in percent) after 30 minutes ([1]; icv): 59%; Analgesic effect (in percent) after 60 minutes ([1]; icv): 100%; Analgesic effect (in percent) after 120 minutes ([1]; icv): 100%; Analgesic effect (in percent) after 180 minutes ([1]; icv): 90%; analgesic activity (in words) ([1]; rat tail flick test): very high analgesic activity; sc/icv [1]: 176; ED50 [1, 9]: 86 µg/kg; respiratory depression at analgesic doses (in words) [3]: not able to initiate a respiratory depression; ED50 [4]: 0.00083 mg/kg; ED50 ([4]; sc): 1 mg/kg

**Q.** For CO[C@@]12CC[C@H](NCC(=O)OC(C)(C)C)[C@@H]3Oc4c(O)ccc5c4[C@@]31CCN(C)[C@@H]2C5 [Compound 1, (4,5α-epoxy-3-hydroxy-14β-methoxy-17-methylmorphinan-6α-ylamino)-acetic acid-tert.-butylester], which Ki [2] is on record?
**A.** 0.48 nM

**Q.** With CCOC(=O)CN[C@@H]1CC[C@@]2(OC)[C@H]3Cc4ccc(O)c5c4[C@@]2(CCN3C)[C@H]1O5 (as salt: hydrochloride) [Compound 23, (4,5α-epoxy-3-hydroxy-14β-methoxy-17-methylmorphinan-6β-ylamino)-acetic acid-ethylester dihydrochloride] as the compound, how does the melting point read?
**A.** > 200 °C

**Q.** With CCOC(=O)CN[C@H]1CC[C@@]2(OC)[C@H]3Cc4ccc(O)c5c4[C@@]2(CCN3C)[C@H]1O5 [Compound 22, (4,5α-epoxy-3-hydroxy-14β-methoxy-17-methylmorphinan-6α-ylamino)-acetic acid-ethylester dihydrochloride] as the compound, how does the Ki [2] read?
**A.** 0.21 nM

**Q.** What does the source list for CO[C@@]12CC[C@@H](NCC(=O)O)[C@@H]3Oc4c(O)ccc5c4[C@@]31CCN(C)C2C5 [Compound 4, (4,5α-epoxy-3-hydroxy-14β-methoxy-17-methylmorphinan-6β-ylamino)-acetic acid sesqui(trifluoroacetate)]?
**A.** ED50 [1, 8]: 0.42 µg/kg; Analgesic effect (in percent) after 10 minutes ([1]; icv): 61%; Analgesic effect (in percent) after 20 minutes ([1]; icv): 74%; Analgesic effect (in percent) after 30 minutes ([1]; icv): 76%; Analgesic effect (in percent) after 60 minutes ([1]; icv): 100%; Analgesic effect (in percent) after 120 minutes ([1]; icv): 100%; Analgesic effect (in percent) after 180 minutes ([1]; icv): 90%; analgesic activity (in words) ([1]; rat tail flick test): very high analgesic activity; times as active as morphine after intracerebroventricular application (icv) ([1]; rat tail flick test, icv, relative to morphine): 238 times; times as active as morphine after subcutaneous application (sc) ([1]; rat tail flick test, sc, relative to morphine): 68 times; sc/icv [1]: 67; ED50 [1, 9]: 28 µg/kg; analgesic activity (rise in HWL of at least 100% taken as significant) [5, 10]: significant analgesic activity; duration of analgesic effect [5, 10]: approx. 14 hours; passage of the blood-brain barrier (concluded from naloxone methiodide antagonism) ([5]; conclusion from the Randall-Selitto test): cannot overcome the blood-brain barrier; anti-allodynic activity (rise of at least 100% in latency of hind paw withdrawal taken as significant) [6, 11]: significant anti-allodynic activity; anti-allodynic effect after naloxone methiodide (ipl) [6, 12]: completely neutralise; anti-allodynic activity (rise of at least 100% in latency of hind paw withdrawal taken as significant) [7, 11]: significant anti-allodynic activity; anti-allodynic effect after naloxone methiodide (ipl) [7, 12]: completely neutralise; respiratory depression at analgesic doses (in words) [3]: not able to initiate a respiratory depression; ED50 [4]: 0.00042 mg/kg; ED50 ([4]; sc): 0.5 mg/kg
